What was measured:
Type in all cases: in vivo, human
[1] = Plasma ketamine, HNK and norketamine levels, gaming disorder subjects (Example 9); conditions: analyte = label; for peak plasma concentration: 100 mg racemic ketamine sublingual; for time of peak plasma concentration: post-administration of 100 mg racemic ketamine sublingual
Procedure: A study was completed on ketamine to treat gaming disorder. Subjects were assessed for gaming disorder using the Internet Gaming Disorder Scale (IGDS) and were included if they received an IGDS score greater than 3. Three subjects in total were included (IG1-IG3). All three were administered sublingual lozenges comprising 100 mg of racemic ketamine.
Blood samples were collected from all three subjects. Blood samples were analysed to determine ketamine and ketamine metabolite levels. Assessments were conducted as below.
The treatment protocol commenced in the same manner as disclosed in the ketamine in subjects with gambling disorder study completed in EXAMPLE 7, with the exceptions as follow: No behavioural tasks were completed. Self-report measures completed during EXAMPLE 9 included Social Phobia Inventory (SPIN), the Craving for Gaming Questionnaire (CGQ), and Generalised Anxiety Disorder-7 (GAD-7) the Sensitivity to Reward and Punishment Scale, and the Childhood Trauma Questionnaire, the Morningness-Eveningness Questionnaire (MEQ).

[2] = Plasma ketamine, HNK and norketamine levels, binge eating disorder subjects (Example 8); conditions: analyte = label; for peak plasma concentration: 100 mg racemic ketamine sublingual; for time of peak plasma concentration: post-administration of 100 mg racemic ketamine sublingual
Procedure: A study was completed on the use of ketamine to treat binge eating disorder. Subjects were assessed for binge eating disorder using the Binge Eating Scale (BES), and included if they received a BES score greater than 15. Three subjects in total were included (BE1-BE3, and interchangeably on FIGS. 5 and 6 as BED1-BED3, these being the same subjects). All three were administered sublingual lozenges comprising 100 mg of racemic ketamine.
Blood samples were collected from all three subjects. Blood samples were analysed to determine ketamine and ketamine metabolite levels, as well as the hormones leptin and ghrelin. Self-report measures were conducted.
The treatment protocol commenced in substantially the same way as disclosed in the ketamine in subjects with gambling disorder study completed in EXAMPLE 7, with the exceptions outlined as follows: No behavioural tasks were completed. Blood samples collected every 10 minutes from the time of administration to 90 minutes post-administration were additionally analysed for leptin and ghrelin. Self-report measures included the Binge Eating Scale, the Adult Attachment Interview (AAI), a 20 question interview about the subject's recollections of their childhood (Sykes and Turner, 2015); the Childhood Trauma Questionnaire; the Morningness-Eveningness Questionnaire (MEQ), a 19-item questionnaire designed to assess when a respondent prefers to wake up or start sleep (American Thoracic Society, 2022); the DSM-5 Binge Eating Disorder diagnostic criteria; and the SPSRQ.

[3] = Mean plasma ketamine, HNK and norketamine, all subjects of Examples 7-10; conditions: 100 mg racemic ketamine sublingual, analyte = label; for concentration at 10 min / concentration at 20 min / concentration at 30 min / concentration at 40 min / concentration at 50 min / concentration at 60 min / concentration at 70 min / concentration at 80 min / concentration at 90 min: human, plasma, other: sublingual
Procedure: (§1) Blood samples were collected every 10 minutes, from 0 minutes (the time of administration) to 90 minutes post-administration. Blood samples at each time point were analysed to determine plasma levels of (2S,6S;2R,6R)-Hydroxynorketamine (HNK).
FIGS. 11-13 illustrate ketamine, HNK, and norketamine levels, respectively, for all subjects of EXAMPLES 7-10, while FIG. 14 illustrates the mean plasma levels of ketamine, HNK, and norketamine for all subjects of EXAMPLES 7-10. Results indicated a mean plasma concentration of ketamine of 104.87 ng/ml at 10 minutes, 230.11 ng/ml at 20 minutes, 267.08 ng/ml at 30 minutes, 271.62 ng/ml at 40 minutes, 288.48 ng/ml at 50 minutes, 272.42 ng/ml at 60 minutes, 263.40 ng/ml at 70 minutes, 227.50 ng/ml at 80 minutes, and 176.91 ng/ml at 90 minutes. Mean HNK was 0 at 10 minutes, 12.22 ng/ml at 20 minutes, 56.73 ng/ml at 30 minutes, 79.10 ng/ml at 40 minutes, 126.20 ng/ml at 50 minutes, 198.87 ng/ml at 60 minutes, 221.08 ng/ml at 70 minutes, 209.14 ng/ml at 80 minutes, and 217.32 ng/ml at 90 minutes. Mean norketamine was 1.92 at 10 minutes, 57.39 ng/ml at 20 minutes, 141.78 ng/ml at 30 minutes, 286.02 ng/ml at 40 minutes, 505.15 ng/ml at 50 minutes, 646.73 ng/ml at 60 minutes, 750.57 ng/ml at 70 minutes, 723.79 ng/ml at 80 minutes, and 653.94 ng/ml at 90 minutes.

[4] = Plasma ketamine, HNK and norketamine levels, gambling disorder subjects (Example 7); conditions: analyte = label; for peak plasma concentration: 100 mg racemic ketamine sublingual; for time of peak plasma concentration: post-administration of 100 mg racemic ketamine sublingual
Procedure: A study was completed on the use of ketamine to treat gambling disorder. Subjects were assessed for gambling disorder using the PGSI. Subjects were included if they received a PGSI score greater than 3. Five subjects in total were included (G1-G5). All five subjects were administered ketamine. Blood samples were collected from all five subjects. Blood samples were analysed to determine ketamine and ketamine metabolite levels, and each subject was assessed post-administration to determine the effectiveness of the treatment.
On Day 3, each subject returned on-site and was administered ketamine. 100 mg of racemic ketamine was administered in as sublingual lozenges.
as §1

[5] = subject BE1 (no data at 30 minutes)

SMILES	peak plasma concentration ([1]; subject IG1)	time of peak plasma concentration ([1]; subject IG1) [min]	peak plasma concentration ([1]; subject IG2)	time of peak plasma concentration ([1]; subject IG2) [min]	peak plasma concentration ([1]; subject IG3)	time of peak plasma concentration ([1]; subject IG3) [min]	peak plasma concentration [2, 5]	time of peak plasma concentration [2, 5] [min]	peak plasma concentration ([2]; subject BE2)	time of peak plasma concentration ([2]; subject BE2) [min]	peak plasma concentration ([2]; subject BE3)	time of peak plasma concentration ([2]; subject BE3) [min]	peak plasma concentration ([4]; subject G1)	time of peak plasma concentration ([4]; subject G1) [min]	peak plasma concentration ([4]; subject G2)	time of peak plasma concentration ([4]; subject G2) [min]	peak plasma concentration ([4]; subject G3)	time of peak plasma concentration ([4]; subject G3) [min]	peak plasma concentration ([4]; subject G4)	time of peak plasma concentration ([4]; subject G4) [min]	also measured
NC1(c2ccccc2Cl)CCCCC1=O (racemic) [Norketamine, (R,S)-norketamine]	about 627 ng/ml	70	about 1,040 ng/ml	50	about 1,116 ng/mL	60	about 81 ng/ml	90	about 685 ng/ml	40	about 975 ng/mL	60	about 592 ng/ml	80	about 1,450 ng/ml	70	about 574 ng/ml	80	about 495 ng/ml	90	concentration at 10 min ([3]; 10 minutes post-administration): 1.92 ng/mL; concentration at 20 min ([3]; 20 minutes post-administration): 57.4 ng/mL; concentration at 30 min ([3]; 30 minutes post-administration): 142 ng/mL; concentration at 40 min ([3]; 40 minutes post-administration): 286 ng/mL; concentration at 50 min ([3]; 50 minutes post-administration): 505 ng/mL; concentration at 60 min ([3]; 60 minutes post-administration): 647 ng/mL; concentration at 70 min ([3]; 70 minutes post-administration): 751 ng/mL; concentration at 80 min ([3]; 80 minutes post-administration): 724 ng/mL; concentration at 90 min ([3]; 90 minutes post-administration): 654 ng/mL; peak plasma concentration ([4]; subject G5): about 1,079 ng/ml; time of peak plasma concentration ([4]; subject G5): about 90 minutes
CNC1(c2ccccc2Cl)CCCCC1=O (racemic) [ketamine, 2-(2-chlorophenyl)-2-(methylamino)-cyclohexanone]	about 390 ng/ml	50	about 301 ng/ml	50	about 670 ng/mL	50	about 270 ng/ml	20	about 339 ng/ml	20	about 208 ng/mL	60	about 250 ng/ml	30	about 405 ng/ml	70	about 395 ng/ml	80	about 291 ng/ml	80	concentration at 10 min ([3]; 10 minutes post-administration): 105 ng/mL; concentration at 20 min ([3]; 20 minutes post-administration): 230 ng/mL; concentration at 30 min ([3]; 30 minutes post-administration): 267 ng/mL; concentration at 40 min ([3]; 40 minutes post-administration): 272 ng/mL; concentration at 50 min ([3]; 50 minutes post-administration): 288 ng/mL; concentration at 60 min ([3]; 60 minutes post-administration): 272 ng/mL; concentration at 70 min ([3]; 70 minutes post-administration): 263 ng/mL; concentration at 80 min ([3]; 80 minutes post-administration): 228 ng/mL; concentration at 90 min ([3]; 90 minutes post-administration): 177 ng/mL; peak plasma concentration ([4]; subject G5): about 426 ng/ml; time of peak plasma concentration ([4]; subject G5): about 20 minutes
N[C@@]1(c2ccccc2Cl)CCC[C@@H](O)C1=O [HNK, (2S,6S;2R,6R)-hydroxynorketamine]	about 287 ng/ml	90	about 279 ng/ml	90	about 407 ng/mL	60	about 53 ng/ml	90	about 108 ng/ml	80	about 244 ng/mL	90	about 300 ng/ml	80	about 319 ng/ml	70	about 175 ng/ml	90	about 134 ng/ml	90	mean plasma concentration ([3]; 10 minutes post-administration): 0 ng/mL; mean plasma concentration ([3]; 20 minutes post-administration): 12.22 ng/mL; mean plasma concentration ([3]; 30 minutes post-administration): 56.73 ng/mL; mean plasma concentration ([3]; 40 minutes post-administration): 79.10 ng/mL; mean plasma concentration ([3]; 50 minutes post-administration): 126.20 ng/mL; mean plasma concentration ([3]; 60 minutes post-administration): 198.87 ng/mL; mean plasma concentration ([3]; 70 minutes post-administration): 221.08 ng/mL; mean plasma concentration ([3]; 80 minutes post-administration): 209.14 ng/mL; mean plasma concentration ([3]; 90 minutes post-administration): 217.32 ng/mL; peak plasma concentration ([4]; subject G5): about 615 ng/ml; time of peak plasma concentration ([4]; subject G5): about 60 minutes

— patent US20240197652A1, “KETAMINE IN THE TREATMENT OF […]” (Awakn LS Europe Holdings Limited, priority 2021, published 2024)
